Active and inactive are the calls of the source. The calls are words filed in the database; no cut-off is given here.
How the values were obtained:
[1] = Lethal dose in L1210-bearing female BDF1 mice; format: toxicity, organism-based; details: BDF1, mouse, in vivo
[2] = In vitro antiviral activity against number of RNA virus was reported; Inactive; format: functional
[3] = In vitro antiviral activity against number of DNA virus was reported; Inactive; format: functional
Mus musculus [4] = organism: Mus musculus; test: Compound was tested against L1210 infected BDF1 mice expressed as weight change at 72 hour; format: functional
Mus musculus [5] = organism: Mus musculus; test: Compound was tested against L1210 infected BDF1 mice expressed as weight change at 24 hour; format: functional
Mus musculus [6] = test: Compound was tested against L1210 infected BDF1 mice at 480 mg/kg expressed as percent increase in life span; format: functional

Structure (SMILES)	LD50 [1] [mg/kg]	Activity [2]	Activity [3]	Weight change (Mus musculus [4]) [g]	Weight change (Mus musculus [5]) [g]	ILS at 480 mg/kg (Mus musculus [6]) [%]
NC(=O)c1nn(C2O[C@H](CO)[C@@H](O)[C@H]2O)cp1 (stereo partly specified)	480	inactive	inactive	–	–	–
NC(=S)c1nn(C2O[C@H](CO)[C@@H](O)[C@H]2O)cp1 (stereo partly specified)	–	–	–	-0.67	-1.67	25

From ChEMBL document CHEMBL1125044, “1,2,4-Diazaphosphole nucleosides. Synthesis, structure, and antitumor activity of nucleosides with a lambda 3 phosphorus atom” (J Med Chem, 1990)
